This is an account of results in patent US20260125647A1, “AGE-MODULATING COMPOUNDS AND METHODS FOR MAKING AGE-MODULATED CELLS” (MEMORIAL SLOAN-KETTERING CANCER CENTER, priority 2023, published 2026).

The subject of one assay is HDF fibroblasts. The assay can be described thus: Hallmarks of age by high content microscopy in fibroblasts. The settings on record: 24 h. The format is cell-based, human. The method, then:
Compounds for experimental validation of L1000-based score. All validation experiments were performed after 24 h of compound treatment. For rejuvenation experiments in fibroblasts Mocetinostat (10 μM; Selleck S1396), Resveratrol (0.37 μM; Selleck S1396) and Radicicol (1.1 μM; Tocris 1589), DMSO (1:1000) and EtOH (1:1000; vehicle control for Radicicol) were applied to old primary fibroblasts (Coriell GM4204). Age induction experiments in young fibroblasts (HDF-f; ScienCell #2300) were performed with 5-Iodotubercin (10 μM; Selleck S8314), Alvocidib (10 μM; Selleck S1230) and Mitoxantrone (1.1 μM; Selleck S2485) with DMSO (1:1000) used as a control. Compounds used for age induction experiments in PSC-derived neurons were: Fludarabine (10 μM; Selleck S1491) Vinorelbine (10 μM; sc-205885) and AGK-2 (0.04 μM; Selleck S7577) with DMSO (1:1000) used as a control.
Assaying Hallmarks of Age by high content microscopy. HDF fibroblasts were plated at a density of 4500/cm^2 and cultured for 48 h before drug treatment. Neurons were plated at a density of 100,000/cm^2 and cultured for 12 days before the application of candidate age inducers. After 24 h of treatment culture wells were washed 2× in PBS then fixed with 4% paraformaldehyde. For immunocytochemistry cells were permeabilized in PBS+0.3% Triton and blocked in 5% normal goat serum. All antibody primary incubations were performed overnight at 4 degrees and secondary antibodies at RT for 1h. Primary antibodies used in this study were: BAG3 (abcam; ab47124), CAV1 (Thermo; MA3-600), H3K9me3 (abcam; ab176916), LAP2 (BD Bioscience; 611000), p21 (CST; 2947), yH2AX (EMD Millipore; 05-636). Immunocytochemistry images were acquired using an Operetta (PerkinElmer, Waltham, MA) microscope and quantified using the harmony high content analysis software. For both fibroblasts and neurons 4 independent batches of cells were assayed in triplicate (n=12). Fluorescence intensity was normalized to DMSO, and ordinary one-way ANOVA used to compare test conditions to the DMSO control (Prism 9.5.1). […]

Assay [1] has as its system fetal human dermal fibroblasts (HDF-f). The assay can be described thus: RNA-seq RNAge validation of age inducers in fetal fibroblasts. The format is cell-based. To be noted: 24 h, relative to DMSO; for RNAge score (relative transcriptional age): Alvocidib 10 μM, 5-Iodotubercin 10 μM, Mitoxantrone 1.1 μM. The method, then: Fibroblast maintenance and culture. Fibroblasts were maintained in DMEM-F12 containing GlutaMAX,15% heat inactivated FBS and 1× Pen/Strep and passaged using Trypsin. For validation of […] aging score by RNA-seq old (GM04204; Coriell) or young (HDF-f; […] Compounds for experimental validation of […]-based score. All validation experiments were performed after 24 h of compound treatment. For rejuvenation experiments in fibroblasts Mocetinostat (10 μM; Selleck […]), Resveratrol (0.37 μM; Selleck […]) and Radicicol (1.1 μM; Tocris 1589), DMSO (1:1000) and EtOH (1:1000; vehicle control for Radicicol) were applied to old primary fibroblasts (Coriell GM4204). Age induction experiments in young fibroblasts (HDF-f; ScienCell #2300) were performed with 5-Iodotubercin (10 μM; Selleck […]), Alvocidib (10 μM; Selleck […]) and Mitoxantrone (1.1 μM; Selleck […]) with DMSO (1:1000) used as a control. Compounds used for age induction experiments in PSC-derived neurons were: […] Selleck […]) with DMSO (1:1000) used as a control. RNA Extraction. Cell were harvested, lysed, and stored in Trizol (Life Technologies) until further processing. For primary frontal cortex or substantia nigra a total of 10 mg of brain tissue from was lysed in Trizol aided by a tissue dounce. For experimental validation […] compounds RNA was extracted by the core using […] Micro Kit (QIAGEN 1071023). In all other cases RNA was extracted using the Zymo Direct-zol RNA Microprep Kit according to the manufacturer's instructions. RNA-seq analysis. Reads were aligned to the hg19 Human transcripts using STAR (version 2.5.21b) using default parameters and resulting bam files were sorted and indexed using samtools. Gene counts were obtained using featureCounts (version 1.4.3) from sorted bam files using uniquely mapped reads. Genes with no expression counts in any sample were discarded. Differential gene expression analysis was performed using DESeq2 R package that normalize gene count data to transcription per million (TPM), and then detect differentially expressed genes (DEG) between Young and Old groups with ([…] score calculation. The aging score is applied on a gene expression test data where two conditions are compared for expression changes in the aging signature, group1 has n samples and group2 has m samples. For each gene in a tissue specific marker set Ĝk, we can calculate t-statistic between two groups based on Welch's two-sample t test as follow: where the normalizing factor Nk is the number of overlapping genes between the test dataset and Ĝk. The aging score, Aging scorek, represents the overall magnitude of expression difference between two sample groups based on the expression trends. This score is calculated using the tissue-specific aging marker set Mk. It indicates the aging difference between the two groups as well as distinguishes which group is older. To mitigate the influence of a small number of markers with large changes gene expression between group1 and group2 of the test data (i.e. large t-score values), we introduced the “Percentage score” as a measure of agreement between the expression trends of the aging markers and the given dataset. The calculation of the Percentage score involves the product of each gene between Tk and Mk: Ai=ti×Li, where i∈Ĝk. A positive Ai indicates a consistent expression change of gene i in both the aging signature and in the comparison between group1 and group2 in the test dataset. Conversely, a negative Ai indicates an opposite expression trend. Therefore, the “Percentage score” is defined as: […]

Another assay has as its system PSC-derived neurons. The assay can be described thus: RNA-seq RNAge validation of age inducers in PSC-derived neurons. The settings on record: 24 h, relative to DMSO, Vinorelbine 10 μM, AGK-2 0.04 μM. The class given is cell-based, human. Here is the method:
Generation of human cortical neurons. Cortical neurons were generated by directed differentiation of human embryonic stem cells (H9; WA-09) maintained in E8 on vitronectin coated plates. […] After 24 h the E8 medium was replaced with E6 containing SB431542 (10 μM), LDN193189 (100 nM) and XAV939 ([…]). After three days the XAV939 was removed from the differentiation media and cells were cultured for an additional seven days in E6 containing SB431542 (10 μM), LDN193189 (100 nM). The neuroepithelium was maintained for an additional 10 days in neurobasal supplemented with N2 and B27. Media was changed daily throughout the differentiation. At DIV 20 the cultures were dissociated using Accutase to generate a single cell suspension and plated out for subsequent experiments in Neurobasal medium supplemented with B27, L-glutamine, BDNF, CAMP, ascorbic acid and GDNF (neural maintenance media). DAPT was also added to the culture medium from DIV20 to DIV30. Compounds for experimental validation of […]-based score. […] Reads were aligned to the hg19 Human transcripts using STAR (version 2.5.21b) using default parameters and resulting bam files were sorted and indexed using samtools. Gene counts were obtained using featureCounts (version 1.4.3) from sorted bam files using uniquely mapped reads. […] This score is calculated using the tissue-specific aging marker set Mk. […]

Assay [2] concerns old primary fibroblasts (Coriell GM04204). The assay can be described thus: RNA-seq RNAge validation of rejuvenating compounds in old primary fibroblasts. The class given is cell-based, human. The settings on record: 0.37 μM, 24 h. Here is the method: Fibroblast maintenance and culture. Fibroblasts were maintained in DMEM-F12 containing GlutaMAX,15% heat inactivated FBS and 1× Pen/Strep and passaged using Trypsin. For validation of […] aging score by RNA-seq old (GM04204; Coriell) or young (HDF-f; […] Compounds for experimental validation of […]-based score. All validation experiments were performed after 24 h of compound treatment. For rejuvenation experiments in fibroblasts Mocetinostat (10 μM; Selleck […]), Resveratrol (0.37 μM; Selleck […]) and Radicicol (1.1 μM; Tocris 1589), DMSO (1:1000) and EtOH (1:1000; vehicle control for Radicicol) were applied to old primary fibroblasts (Coriell GM4204). Age induction experiments in young fibroblasts (HDF-f; ScienCell #2300) were performed with 5-Iodotubercin (10 μM; Selleck […]), Alvocidib (10 μM; Selleck […]) and Mitoxantrone (1.1 μM; Selleck […]) with DMSO (1:1000) used as a control. Compounds used for age induction experiments in PSC-derived neurons were: […] Selleck […]) with DMSO (1:1000) used as a control. RNA Extraction. […] Reads were aligned to the hg19 Human transcripts using STAR (version 2.5.21b) using default parameters and resulting bam files were sorted and indexed using samtools. Gene counts were obtained using featureCounts (version 1.4.3) from sorted bam files using uniquely mapped reads. […] This score is calculated using the tissue-specific aging marker set Mk. […]

For the compound `Nc1ncnc2c1c(I)cn2[C@@H]1O[C@H](CO)[C@@H](O)[C@H]1O` [5-iodotubercin], in the assay on HDF fibroblasts, the nuclear area entry was “increase” and the nuclear roundness result was “loss”. In addition, in the assay on HDF fibroblasts (relative to DMSO), the BAG3 fluorescence intensity entry is recorded as “decreased” and the LAP2 fluorescence intensity result was “loss”. Further, in assay [1], the “pattern of induction of the RNAge subscores” value (shortened to “pattern”) is given as “very similar pattern of induction” and the “RNAge score (relative transcriptional age)” value was “increased”.
Consider `N#C/C(=C\c1ccc(-c2cc(Cl)ccc2Cl)o1)C(=O)Nc1cccc2ncccc12` [AGK-2], for which, in the assay on PSC-derived neurons, the “RNAge score / aging scores across the aging signatures” value is on record as “no obvious transcriptional effect or impact”.
Turning to `CN1CC[C@H](c2c(O)cc(O)c3c(=O)cc(-c4ccccc4Cl)oc23)[C@H](O)C1` [Alvocidib], in the assay with HDF fibroblasts, the nuclear area entry is reported as “increase” and the nuclear roundness result is “loss”. In the assay on HDF fibroblasts (relative to DMSO), the BAG3 fluorescence intensity entry is “decreased” and the LAP2 fluorescence intensity result is recorded as “loss”. For the same compound, in assay [1], the “pattern” value is “very similar pattern of induction” and the “RNAge score (relative transcriptional age)” value is recorded as “increased”.
`O=C1c2c(O)ccc(O)c2C(=O)c2c(NCCNCCO)ccc(NCCNCCO)c21` [Mitoxantrone]: in the assay with HDF fibroblasts, the nuclear roundness entry was “loss”. Moreover, in the assay with HDF fibroblasts (relative to DMSO), the BAG3 fluorescence intensity result is “decreased”, the H3K9me3 immunoreactivity entry is “decreased”, the LAP2 fluorescence intensity result is “loss” and the p21 immunoreactivity entry is “increased”. Also, in the assay with HDF fibroblasts (relative to DMSO), the γH2AX immunoreactivity result is “increased”. Besides, in assay [1], the “pattern” value is “only showed induced aging in the ‘Pan’ and ‘pF’ aging categories”; the “RNAge score (relative transcriptional age)” value was “increased”.
As for `Oc1ccc(C=Cc2cc(O)cc(O)c2)cc1` [Resveratrol], in assay [2], the “fibroblast aging score bubble size (percent of genes that change in the expected direction)” value is given as “very small bubble size”.
Consider `CCC1=C[C@@H]2CN(C1)Cc1c([nH]c3ccccc13)[C@@](C(=O)OC)(c1cc3c(cc1OC)N(C)[C@H]1[C@@](O)(C(=O)OC)[C@H](OC(C)=O)[C@]4(CC)C=CCN5CC[C@]31[C@@H]54)C2` [Vinorelbine], for which the “RNAge score / aging scores across the aging signatures” value in the assay with PSC-derived neurons is “only a slight, albeit consistent, induction”.
